Experimental findings from patent US20090036525A1, “Non-Natural Amino Acid Derivatives” (POXIMAGEN LTD., priority 2006, published 2009) are described below.

Where a SMILES comes first, the peptide text is derived from it. [ ]: non-standard residue; d: D form. Dopa = N[C@@H](Cc1ccc(O)c(O)c1)C(=O)O; Cha = N[C@@H](CC1CCCCC1)C(=O)O

This assay concerns 6-OHDA-lesioned rats. In words: Induction of rotational activity in 6-OHDA-lesioned rats. Format: in vivo, rat. The conditions noted are these: 63.4 μmole/kg, after benserazide 10 mg/kg, rotations over 4 hours.

`COC(=O)[C@H](Cc1ccc(O)c(O)c1)NC(=O)[C@@H](N)[C@@H](C)c1ccccc1.Cl` [Example 12, (1S,2S)-1-[(S)-2-(3,4-Dihydroxyphenyl)-1-methoxycarbonylethylcarbamoyl]-2-phenylpropylammonium chloride]: under “p.o.”, the “AUC activity (as % of AUC activity L-DOPA)” value is recorded as 50 % of L-DOPA, the “Peak activity (as % of maximal activity L-DOPA)” value is given as 62 % of L-DOPA and the “duration of activity (as % of duration of activity L-DOPA)” value was 46 % of L-DOPA.
The corresponding values for `COC(=O)[C@H](Cc1ccc(O)c(O)c1)NC(=O)[C@@H](N)CC1CCCCC1.Cl` [Example 1, (S)-2-Cyclohexyl-1-[(S)-2-(3,4-dihydroxyphenyl)-1-methoxycarbonylethyl-carbamoyl]-ethylammonium chloride] (H-[Cha]-[Dopa]-OMe) are 40 % of L-DOPA, 53 % of L-DOPA and 45 % of L-DOPA.
Consider `COC(=O)[C@H](Cc1ccc(O)c(O)c1)NC(=O)[C@@H](N)[C@H](C)c1ccccc1.Cl` [Example 13, (1S,2R)-1-[(S)-2-(3,4-Dihydroxyphenyl)-1-methoxycarbonyl-ethylcarbamoyl]-2-phenylpropylammonium; chloride], for which, under “p.o.”, the “AUC activity (as % of AUC activity L-DOPA)” value is 106 % of L-DOPA, the “Peak activity (as % of maximal activity L-DOPA)” value is 141 % of L-DOPA and the “duration of activity (as % of duration of activity L-DOPA)” value is 76 % of L-DOPA.
Consider `COC(=O)[C@H](Cc1ccc(OC(C)=O)c(OC(C)=O)c1)NC(=O)[C@@H](N)CC1CCCCC1.Cl` [Example 2, (S)-2-Cyclohexyl-1-[(S)-2-(3,4-diacetoxyphenyl)-1-methoxycarbonyl-ethylcarbamoyl]-ethylammonium chloride], for which, for the setting “i.p.”, the “AUC activity (as % of AUC activity L-DOPA)” value is reported as 32 % of L-DOPA, the “Peak activity (as % of maximal activity L-DOPA)” value is on record as 31 % of L-DOPA and the “duration of activity (as % of duration of activity L-DOPA)” value is 27 % of L-DOPA.
